The values that follow are results of earlier work, collected in patent US20130287890A1, “INHIBITOR OF THE PRODUCTION OF ADVANCED GLYCATION END PRODUCTS” (UENO FINE CHEMICALS INDUSTRY, LTD., priority 2012, published 2013).

The conditions of this series: background art; cited from earlier work.

Molecules are shown by their SMILES.

For the compound `N=C(N)NN` [Aminoguanidine, aminoguanidine], the adverse drug reactions entry is “hepatic impairment”.
